In publication PMC11876671, “Investigating blood–brain barrier penetration and neurotoxicity of natural products for central nervous system drug development” (Scientific Reports, 2025):
Where a name gives a salt, the structure may show the parent alone.

test: in vitro; settings: PAMPA, PAMPA-BBB Pe

SMILES	Papp [×10⁻⁶ cm/s]
CC[C@H](C)C(=O)O[C@H]1CCC=C2C=C[C@H](C)[C@H](CC[C@@H]3C[C@@H](O)CC(=O)O3)[C@H]21 [MEVASTATIN]	14

same assay, conditions: PAMPA, PAMPA-BBB Pe(10^-6 cm/sec)

SMILES	Papp [×10⁻⁶ cm/s]
CN1c2c(nc(N)[nH]c2=O)NC[C@@H]1CNc1ccc(C(=O)N[C@@H](CCC(=O)O)C(=O)O)cc1 [LEVOMEFOLATE]	< 1
C[C@H]1C[C@H]2[C@@H]3CCC4=CC(=O)C=C[C@]4(C)[C@H]3C(=O)C[C@]2(C)[C@@]1(O)C(=O)CO [MEPREDNISONE]	3.7
C/C(=C\C(=O)OCCCCCCCCC(=O)O)C[C@@H]1OC[C@H](C[C@@H]2O[C@H]2[C@@H](C)[C@H](C)O)[C@@H](O)[C@H]1O [MUPIROCIN]	< 1
O=C(O)c1cccnc1 [NICOTINIC ACID]	< 1

same assay, conditions: PAMPA, PAMPA-BBB Pe(10^-6 cm/sec), Table S3: compounds exhibiting low PAMPA-BBB permeability

SMILES	Papp [×10⁻⁶ cm/s]
O=C1C[C@@H](c2ccc(O[C@@H]3O[C@H](CO)[C@@H](O)[C@H](O)[C@H]3O)cc2)Oc2cc(O)ccc21 [LIQUIRITIN]	< 1
O=C(/C=C/c1ccc(O)c2c1[C@H](C(=O)O)[C@@H](c1ccc(O)c(O)c1)O2)O[C@H](Cc1ccc(O)c(O)c1)C(=O)O [LITHOSPERMIC ACID A]	< 1
COC(=O)C1=CO[C@@H](O[C@@H]2O[C@H](CO)[C@@H](O)[C@H](O)[C@H]2O)[C@@H]2[C@@H](C)[C@@H](O)C[C@H]12 [LOGANIN]	< 1
COC(=O)c1ccc(O)c2nc3c(C=O)c(O)cc(O)c3nc12 [LOMOFUNGIN]	5.1
O=c1cc(-c2ccc(O)c(O)c2)oc2cc(O)cc(O)c12 [LUTEOLIN]	2.2
CC(C)=CCC/C(C)=C/C=C/C(C)=C/C=C/C(C)=C/C=C/C=C(C)/C=C/C=C(C)/C=C/C=C(\C)CCC=C(C)C [LYCOPENE]	< 1
O=C(O)c1cc(N(Cc2ccccc2O)Cc2ccccc2O)ccc1O [L[…]]	5.9
COc1cc(-c2[o+]c3cc(O)cc(O)c3cc2O)cc(OC)c1O [MALVIDIN]	1
O=c1c2cc(O)c(O)cc2oc2cc(O)c([C@@H]3O[C@H](CO)[C@@H](O)[C@H](O)[C@H]3O)c(O)c12 [MANGIFERIN]	< 1
CC1=C(CC/C(C)=C/CCC2=CC[C@H](C3=CC(=O)O[C@H]3O)O[C@H]2O)C(C)(C)CCC1 [MANOALIDE]	< 1
O=C(/C=C/c1ccc(O)c(O)c1)c1ccc(O[C@@H]2O[C@H](CO)[C@@H](O)[C@H](O)[C@H]2O)c(O)c1O [MAREIN¦]	1.6
COc1ccc2[nH]cc(CCNC(C)=O)c2c1 [MELATONIN]	2.8
CNCC(O)c1ccc(O)c(OC)c1 (stereo not drawn) [METANEPHRINE HYDROCHLORIDE]	< 1
CSC[C@H]1O[C@@H](n2cnc3c(N)ncnc32)[C@H](O)[C@@H]1O [METHYLTHIOADENOSINE]	< 1
COc1cc(OC)c(C(C)=O)c(O)c1C [METHYLXANTHOXYLINE]	< 1
CC=C1C[N+]2(C)CC[C@@]34C(=C(C=O)[C@H]1C[C@@H]32)Nc1ccccc14 (stereo partly drawn) [METVINE]	< 1
CC[C@H]1O[C@]2(CC[C@@H]1C)C[C@@H]1C[C@@H](CC=C(C)C[C@@H](C)C=CC=C3CO[C@@H]4[C@H](O)C(C)=C[C@@H](C(=O)O1)[C@]34O)O2 [MILBEMYCIN A4]	9.9
O=c1c(O)c(-c2ccc(O)cc2O)oc2cc(O)cc(O)c12 [MORIN]	1.5
O=c1c(O)c(-c2cc(O)c(O)c(O)c2)oc2cc(O)cc(O)c12 [MYRICETIN]	< 1
CNc1ccc(C(=O)CC(O)CCC(C)C2OC(=O)CC(O)CC(=O)CC(O)CC(O)CC(O)CC(O)CC3(O)CC(O)C(C(=O)OC)C(CC(O[C@@H]4O[C@H](C)[C@@H](O)[C@H](N)[C@@H]4O)/C=C/C=C/C=C/C=C/C=C/C=C/C=C/C2C)O3)cc1 (stereo partly drawn) [M[…]]	< 1
COc1cc2c(c(OC)c1OC)-c1ccc(O)c(=O)cc1[C@@H](N)CC2 [N-DEACETYLCOLCHICEINE]	8.2
COc1cc2c(c(OC)c1OC)-c1ccc(OC)c(=O)cc1[C@@H](NC=O)CC2 [N-FORMYL-N-DEACETYLCOLCHICINE]	6.6
CNc1ncnc2c1ncn2C1OC(CO)C(O)C1O (stereo not drawn) [N-METHYLADENOSINE]	< 1

SMILES	Papp [×10⁻⁶ cm/s]
CNCCc1c[nH]c2ccc(O)cc12 [N-METHYLSEROTONIN]	7.1
C[C@@H]1C/C=C/C=C/C=C/C=C/[C@H](O[C@@H]2O[C@H](C)[C@@H](O)[C@H](N)[C@@H]2O)C[C@@H]2O[C@](O)(C[C@@H](O)C[C@H]3O[C@@H]3/C=C/C(=O)O1)C[C@H](O)[C@H]2C(=O)O [NATAMYCIN]	5.7
COc1ccc([C@@H]2CC(=O)c3c(O)cc(O[C@@H]4O[C@H](CO)[C@@H](O)[C@H](O)[C@H]4O[C@@H]4O[C@@H](C)[C@H](O)[C@@H](O)[C@H]4O)cc3O2)cc1O [NEOHESPERIDIN]	< 1
C[N+]1([O-])CCC[C@@H]1c1cccnc1 (stereo partly drawn) [NICOTINE N'-OXIDE]	2.8
CC(=O)NCCc1c[nH]c2ccc(O)cc12 [NORMELATONIN]	< 1
COc1cc(C(O)CN)ccc1O (stereo not drawn) [NORMETADRENALINE HYDROCHLORIDE]	< 1
c1cncc([C@@H]2CCCN2)c1 [NORNICOTINE]	8.4
Cc1cc(O)c(C=O)c2c1C(=O)Oc1c(C)c(O)c3c(c1O2)C(O)OC3=O (stereo not drawn) [Norstictic acid]	2
CC(=O)Nc1ccccc1O [O-ACETAMIDOPHENOL]	< 1
COc1ccc(-c2coc3cc(O[C@@H]4O[C@H](CO)[C@@H](O)[C@H](O)[C@H]4O)ccc3c2=O)cc1 [ONONOSIDE]	< 1
Cn1c(=O)[nH]c2ncn(C)c2c1=O [PARAXANTHINE]	< 1
O=C1C=C2C(=CCOC2O)O1 (stereo not drawn) [PATULIN]	< 1
COc1ccc(-c2cc(=O)c3c(O)c(OC)c(O[C@@H]4O[C@H](CO[C@@H]5O[C@@H](C)[C@H](O)[C@@H](O)[C@H]5O)[C@@H](O)[C@H](O)[C@H]4O)cc3o2)cc1 [PECTOLINARIN]	< 1
Oc1ccc(-c2[o+]c3cc(O)cc(O)c3cc2O)cc1 [PELARGONIDIN]	< 1
O=C(OC[C@H]1O[C@@H](OC(=O)c2cc(O)c(O)c(O)c2)[C@H](OC(=O)c2cc(O)c(O)c(O)c2)[C@@H](OC(=O)c2cc(O)c(O)c(O)c2)[C@@H]1OC(=O)c1cc(O)c(O)c(O)c1)c1cc(O)c(O)c(O)c1 [PENTAGALLOYLGLUCOSE]	3.2
O=C(CCc1ccc(O)cc1)c1c(O)cc(O)cc1O [PHLORETIN]	2.2
O=C(CCc1ccc(O)cc1)c1c(O)cc(O)cc1O[C@@H]1O[C@H](CO)[C@@H](O)[C@H](O)[C@H]1O [PHLORIDZIN]	1.4
CC1=C[C@H]2[C@@]3(O)[C@H](C)[C@@H](O)[C@]4(O)[C@H]([C@@H]3C=C(CO)C[C@]2(O)C1=O)C4(C)C [PHORBOL]	< 1
CC(=O)c1ccc(O[C@@H]2O[C@H](CO)[C@@H](O)[C@H](O)[C@H]2O)cc1 [PICEIN]	< 1
O=C(O)/C=C/C=C/c1ccc2c(c1)OCO2 [PIPERIC ACID]	< 1
O=C(O)c1ccc2c(c1)OCO2 [PIPERONYLIC ACID]	< 1
OC[C@H]1O[C@@H](Oc2cc(O)cc(/C=C/c3ccc(O)cc3)c2)[C@H](O)[C@@H](O)[C@@H]1O [POLYDATIN]	< 1
COc1ccc([C@@H]2CC(=O)c3c(O)cc(O[C@@H]4O[C@H](CO)[C@@H](O)[C@H](O)[C@H]4O[C@@H]4O[C@@H](C)[C@H](O)[C@@H](O)[C@H]4O)cc3O2)cc1 [PONCIRIN]	< 1

same assay, conditions: PAMPA, PAMPA-BBB Pe, Table S2: compounds exhibiting moderate to high PAMPA-BBB permeability

SMILES	Papp [×10⁻⁶ cm/s]
CC1=CC(=O)C2=C(C)CC[C@@H]3[C@H](OC(=O)[C@H]3C)[C@@H]12 [LEUKOMISIN]	57
N[C@@H](Cc1cc(I)c(Oc2cc(I)c(O)c(I)c2)c(I)c1)C(=O)O [LEVOTHYROXINE]	83
COc1cc(OC)c2ccc(=O)oc2c1 [LIMETTIN]	105
CN1C[C@H](CO)C=C2c3cccc4[nH]cc(c34)C[C@H]21 [LYSERGOL]	51
CC(C)c1cccc(O)c1 [M-ISOPROPYLPHENOL]	149
CCCC[C@@H](C)/C=C(C)/C=C(\C)C(=O)NC1=C[C@@](O)(/C=C/C=C/C=C/C(=O)NC2=C(O)CCC2=O)[C@@H]2O[C@@H]2C1=O [MANUMYCIN A]	64
CC(=O)[C@H]1CC[C@H]2[C@@H]3C[C@H](C)C4=CC(=O)CC[C@]4(C)[C@H]3[C@@H](O)C[C@]12C [MEDRYSONE]	72
COC(=O)c1ccc(OC)cc1 [METHYL ANISATE]	103
COC(=O)C=Cc1ccccc1 [METHYL CINNAMATE]	98
COC(=O)c1ccccc1OC [METHYL O-ANISATE]	120
CC(=O)c1ccc[nH]1 [METHYL PYRROL-2-YL KETONE]	28
COC1=CC(=O)O[C@@H](/C=C/c2ccc3c(c2)OCO3)C1 [METHYSTICIN]	104
COC(=O)C1=CO[C@@H](C)[C@@H]2CN3CC[C@@]4(C(=O)Nc5ccccc54)[C@@H]3CC12 (stereo partly drawn) [MITRAPHYLLINE]	117
COC(=O)c1c(C)cc(O)cc1O [Methyl 2,4-dihydroxy-6-methylbenzoate]	63
CC(C)=CCCC(C)=CC(=O)O [NEROLIC ACID]	17
Cn1cccc1-c1cccnc1 [NICOTYRINE]	102
CCCCCCCCC(=O)NCc1ccc(O)c(OC)c1 [NONIVAMIDE]	125
CC1=C(O)C(=O)CO1 [NORFURONOL]	47
COc1ccc(-c2cnc(-c3cccnc3)o2)cc1 [O-[…]]	262
Cn1cnc2c(NCc3ccccc3)nc(NCCO)nc21 [OLOMOUCINE]	10
CCOc1ccc(O)cc1 [P-HYDROXYPHENETOLE]	35
COc1ccc(COC(C)=O)cc1 [P-METHOXYBENZYL ACETATE]	172
COc1ccc(C(C)=O)c(O)c1 [PAEONOL]	146
COc1ccc(Cc2nccc3cc(OC)c(OC)cc23)cc1OC [PAPAVERINE HYDROCHLORIDE]	165
CC(C)(O)[C@H]1O[C@H]2CC[C@@]3(C)[C@@](O)(CC[C@H]4Cc5c([nH]c6ccccc56)[C@@]43C)C2=CC1=O [PAXILLINE]	161
CC(C)=CCOc1c2occc2cc2ccc(=O)oc12 [PENTOSALEN]	195
CCCCCCCCCCCCCC(=O)O[C@@H]1[C@@H](C)[C@@]2(O)[C@@H](C=C(CO)C[C@]3(O)C(=O)C(C)=C[C@@H]23)[C@@H]2C(C)(C)[C@]12OC(C)=O [PHORBOL MYRISTATE ACETATE]	47
